Patent publication US11007177B2, “Compositions comprising a combination of a substituted flavonoid and a substituted indole for treating ocular diseases” (University of Macau, priority 2015, dated 2021)

Tested on: TSP-1 null mice
Assay: Corneal fluorescein staining in murine model of Sjögren's syndrome
Type: in vivo
Conditions: 5 μL eye drops twice daily, 30 μM quercetin and/or 0.5 μM I3O in PBS
Protocol: Mice. Thrombospondin (TSP)-1 null mice (C57BL/6 background), were bred in-house in a pathogen-free facility at Boston University School of Medicine, Boston, Mass. All experiments were conducted in accordance with institutional guidelines and ARVO Statement of the Use of Animals in Ophthalmic and Vision Research.
Corneal Fluorescein Staining. Sodium fluorescein (1%), 1 μl was applied to the cornea of mice under anesthesia. Three minutes later, eyes were flushed with PBS to remove excess fluorescein, and corneal staining was evaluated and photographed with a slit lamp biomicroscope (Humphrey-Zeiss, Dublin, Calif.) using a cobalt blue light. Punctate staining was recorded using a standardized National Eye Institute grading system of 0 to 3 for each of the five areas of the cornea (Lemp, 1995, CLAO J. 21:221-232).
TSP-1 deficient (null) mice (12 wk old) were treated with eyedrops twice daily for a period of two weeks. The 5 μL eye drops were either PBS as a control or 0.5 μM I3O and 30 μM quercetin in PBS, 0.5 μM I3O alone in PBS, or 30 μM quercetin alone in PBS. […] Clinical signs of dry eye disease, including effect on the corneal surface and peroxidase levels in tears, were measured at baseline (prior to initiating treatment) and at the end of week 1 and effect on the corneal surface was assayed again at the end of week 2. […]

Row | Structure (SMILES) | corneal surface / corneal fluorescein score, week 1 (week 1, FIG. 5) | corneal surface / corneal fluorescein score, week 2 (week 2, FIG. 5)
1 | O=c1c(O)c(-c2ccc(O)c(O)c2)oc2cc(O)cc(O)c12 [quercetin] | significant improvement in the corneal surface | –
2 | O=C1Nc2ccccc2/C1=C1/Nc2ccccc2/C1=N\O [Heterodimer I3O, indirubin-3′-oxime] | – | small improvement in corneal fluorescein score at week 2, but it was not significant
